Measured values from PubChem BioAssay (NCI).
“And” between values parts separate entries of the source, which are not always exact repeats. Equal values may be shown once.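 Cells were grown in 96-well plates and exposed to each compound for 48 hours at five concentrations; endpoints were interpolated linearly between bracketing concentrations, or set to the highest concentration if not reached. GI50: concentration for 50% inhibition of growth. TGI marks complete inhibition of growth.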

Tests used:
Assay in all cases: NCI-60 cell line screen, 48 h
SNB-19 CNS = tested on: SNB-19 CNS
SW-620 colon = tested on: SW-620 colon
CAKI-1 renal = tested on: CAKI-1 renal
MCF7 breast = tested on: MCF7 breast
KM12 colon = tested on: KM12 colon
OVCAR-3 ovarian = tested on: OVCAR-3 ovarian
OVCAR-8 ovarian = tested on: OVCAR-8 ovarian
HOP-92 NSCLC = tested on: HOP-92 NSCLC
A498 renal = tested on: A498 renal
NCI-H460 lung = tested on: NCI-H460 lung

| Compound | GI50 (SNB-19 CNS) | TGI (SNB-19 CNS) | GI50 (SW-620 colon) | TGI (SW-620 colon) | GI50 (CAKI-1 renal) | TGI (CAKI-1 renal) | GI50 (MCF7 breast) | TGI (MCF7 breast) | GI50 (KM12 colon) | TGI (KM12 colon) | GI50 (OVCAR-3 ovarian) | TGI (OVCAR-3 ovarian) | GI50 (OVCAR-8 ovarian) | TGI (OVCAR-8 ovarian) | GI50 (HOP-92 NSCLC) | TGI (HOP-92 NSCLC) | GI50 (A498 renal) | TGI (A498 renal) | GI50 (NCI-H460 lung) | TGI (NCI-H460 lung) |
| --- | --- | --- | --- | --- | --- | --- | --- | --- | --- | --- | --- | --- | --- | --- | --- | --- | --- | --- | --- | --- |
| COC(=O)C1=C(O)C(C(=O)OC)[C@@]2(O)[C@@H](C(=O)OC)C(c3ccccc3Cl)C[C@@H]1[C@@H]2C(=O)OC (stereo partly drawn) | 16.2 µM | 39.5 µM | 5.46 µM | 21.9 µM | 3470 nM | 11.2 µM | 5240 nM | > 100 µM | 6500 nM | 21.2 µM | 4480 nM | 16.1 µM | 5.81 µM | 34 µM | 16.1 µM | 54.2 µM | 14.2 µM | 32.4 µM | 10700 nM | > 100 µM |
| NC(=S)N=Nc1c(O)[nH]c2ccccc12 | 262 µM | 722 µM | 474 µM | > 1000 µM | 32000 nM and 73400 nM | 251 µM | 168000 nM | 611 µM | 217000 nM | > 1000 µM | 139000 nM | 322 µM | 234 µM | 846 µM | 64.8 µM and 106 µM | 224 µM | 30.1 µM and 206 µM | 94.9 µM and 503 µM | 185000 nM | > 1000 µM |
| Nc1nc(Cl)c2ncn(Cc3ccc(-c4ccc(CCl)cc4)cc3)c2n1 | 38.4 µM | > 100 µM | 14.1 µM | 76.1 µM | 5760 nM | 33.3 µM | 7310 nM | 71.7 µM | 27700 nM | > 100 µM | 7300 nM | 32 µM | 7.86 µM | 29.5 µM | 1.3 µM | 23.6 µM | 35.2 µM | > 100 µM | 20400 nM | 69.1 µM |
| CCCCCCCCC(=O)NCCN(CCN)C(=O)CCCCCCCC | – | 17.7 µM | – | 6.31 µM | – | 32.9 µM | – | 17.5 µM | – | 6.01 µM | – | 30.9 µM | – | 26.8 µM | – | 37.1 µM | – | 43.8 µM | – | 19.7 µM |
| CN1CCN(Cc2ccc(NC(=O)c3[nH]ncc3Nc3cc(OC4CCCC4)ncn3)cc2)CC1 | 4.74 µM | 15.7 µM | 2.66 µM | 7.25 µM | 366 nM | 9.11 µM | 1590 nM | 4.96 µM | 2180 nM | 6.19 µM | 1770 nM | 3.69 µM | 4.95 µM | 26.9 µM | 6.69 µM | 18.6 µM | 6.37 µM | 19.4 µM | 1610 nM | 5.97 µM |
| CCN1C(=O)N(CC)C2C1NN=c1s/c(=C\c3cnc(C)n3C)c(=O)n12 (stereo not drawn) | 3.94 µM | > 100 µM | 2.01 µM | > 100 µM | 700 nM | > 100 µM | 676 nM | > 100 µM | 1220 nM | > 100 µM | 593 nM | 3.41 µM | 3.41 µM | > 100 µM | 4.85 µM | 96.1 µM | 0.946 µM | 5.43 µM | 2670 nM | > 100 µM |
| CC(=O)Nc1cc(CN2CCCCC2)c(O)c2ncccc12 | – | > 100 µM | – | > 100 µM | – | > 100 µM | – | > 100 µM | – | > 100 µM | – | 96.9 µM | – | > 100 µM | – | > 100 µM | – | > 100 µM | – | 36.9 µM |
| O=C(O)CSc1nnc2c3ccccc3c3ccccc3c2n1 | – | > 100 µM | – | > 100 µM | – | > 100 µM | – | > 100 µM | – | > 100 µM | – | > 100 µM | – | > 100 µM | – | > 100 µM | – | > 100 µM | – | > 100 µM |
| CC(=O)N1c2ccc(-c3ccc(C(=O)O)cc3)cc2[C@H](Nc2ccc(Cl)cc2)C[C@@H]1C | 1.06 µM | > 100 µM | 11.1 µM | > 62 µM | 45.7 nM | > 100 µM | 27.3 nM | > 100 µM | 924 nM | 20.2 µM | 343 nM | 18.8 µM | 2.52 µM | 63.5 µM | 0.024 µM | 13.3 µM | 0.0667 µM | 1.71 µM | 1610 nM | > 55.6 µM |
| CN1C(=O)C(C)(C)Oc2c(-c3cn(C)c(=O)c4[nH]ccc34)cc(S(C)(=O)=O)cc21 | 1.6 µM | > 100 µM | 2.15 µM | 19.2 µM | 271 nM | 16.1 µM | 338 nM | > 100 µM | 1440 nM | 16.1 µM | 999 nM | 5.17 µM | 1.81 µM | > 100 µM | 0.408 µM | > 100 µM | 1.11 µM | 5.98 µM | 2290 nM | > 100 µM |
| N#CC(CC(=O)O)=C(c1ccccc1)c1ccccc1 | – | > 100 µM | – | > 100 µM | – | > 100 µM | – | > 100 µM | – | > 100 µM | – | > 100 µM | – | > 100 µM | – | > 100 µM | – | > 100 µM | – | > 100 µM |
| O=C(N/N=C/c1cccc(O)c1)c1ccc(C(F)(F)F)nc1Nc1cccc(C(F)(F)F)c1 | 2.51 µM | 12 µM | 1.63 µM | 5.77 µM | 1170 nM | 3 µM | 1370 nM | 4.08 µM | 1690 nM | 5.22 µM | 1030 nM | 4.79 µM | 2.12 µM | 11.3 µM | 1.29 µM | 4.56 µM | 1.59 µM | 5.65 µM | 1740 nM | 4.52 µM |
| CC(C)CC1NC(=O)C(C(C)C)NC(=O)CC(C)COC(=O)C(CC(C)C)N(C)C(=O)C(C(C)C)NC(=O)C(C(C)C)OC1=O (stereo not drawn) | – | > 50 µM | – | > 50 µM | – | > 50 µM | – | > 50 µM | – | > 50 µM | – | > 50 µM | – | > 50 µM | – | > 50 µM | – | > 50 µM | – | > 50 µM |
| COc1ccc(CNC(=O)c2c(C)n([O-])c3cc(F)c(F)cc3[n+]2=O)cc1 | 13.1 µM | 25.8 µM | 3.83 µM | 13.1 µM | – | – | 5720 nM | 19.3 µM | 15700 nM | 35.5 µM | 10000 nM | 21.6 µM | 3.72 µM | 15.9 µM | 14.9 µM | 32 µM | 16.1 µM | 29.6 µM | 13100 nM | 25.9 µM |
